The numbers were not newly measured in patent publication US20260041620A1, “NOVEL AMINO ACID BASED SALTS, COMPOSITIONS AND METHODS FOR TREATING SKIN AND IMPROVING SKIN REJUVENATION AND LONGEVITY” (Sytheon Ltd, priority 2023, published 2026), which cites them from elsewhere.

What is called IC50 is the concentration that inhibits the measured activity by half.

Settings in all cases: reported, abcam; cited from earlier work
One data set concerns the target T1, HDAC7 (Homo sapiens, UniProt Q8WUI4).
T1 sequence (Q8WUI4 1-952): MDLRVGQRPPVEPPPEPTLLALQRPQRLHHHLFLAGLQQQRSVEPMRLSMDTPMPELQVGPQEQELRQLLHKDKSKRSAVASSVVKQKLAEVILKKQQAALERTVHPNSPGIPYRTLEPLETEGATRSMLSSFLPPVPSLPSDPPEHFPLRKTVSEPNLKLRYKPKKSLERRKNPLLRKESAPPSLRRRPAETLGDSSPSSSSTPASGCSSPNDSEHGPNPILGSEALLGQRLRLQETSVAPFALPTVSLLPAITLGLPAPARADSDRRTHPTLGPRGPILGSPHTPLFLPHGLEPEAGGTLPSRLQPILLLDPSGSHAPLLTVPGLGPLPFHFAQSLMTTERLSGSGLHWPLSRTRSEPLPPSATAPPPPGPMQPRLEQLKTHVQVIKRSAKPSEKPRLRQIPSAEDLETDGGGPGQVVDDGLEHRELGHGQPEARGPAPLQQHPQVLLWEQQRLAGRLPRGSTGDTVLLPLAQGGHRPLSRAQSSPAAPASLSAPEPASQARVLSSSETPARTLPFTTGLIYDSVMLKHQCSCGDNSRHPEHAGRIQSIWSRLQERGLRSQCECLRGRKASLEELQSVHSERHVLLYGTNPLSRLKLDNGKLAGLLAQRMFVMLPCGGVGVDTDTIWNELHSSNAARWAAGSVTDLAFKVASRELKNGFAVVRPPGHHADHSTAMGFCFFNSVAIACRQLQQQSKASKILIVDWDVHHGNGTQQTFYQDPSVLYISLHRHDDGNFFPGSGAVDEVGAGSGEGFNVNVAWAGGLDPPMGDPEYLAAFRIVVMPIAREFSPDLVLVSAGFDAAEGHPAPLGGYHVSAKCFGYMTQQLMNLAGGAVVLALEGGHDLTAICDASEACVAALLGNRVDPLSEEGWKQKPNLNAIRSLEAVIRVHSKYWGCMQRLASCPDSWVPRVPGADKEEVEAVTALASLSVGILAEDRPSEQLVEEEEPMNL

In the next data set the target is HDAC2 (Homo sapiens, UniProt Q92769).
The target in the next data set is T2, HDAC6 (Homo sapiens, UniProt Q9UBN7).
T2 sequence (Q9UBN7 1-1215): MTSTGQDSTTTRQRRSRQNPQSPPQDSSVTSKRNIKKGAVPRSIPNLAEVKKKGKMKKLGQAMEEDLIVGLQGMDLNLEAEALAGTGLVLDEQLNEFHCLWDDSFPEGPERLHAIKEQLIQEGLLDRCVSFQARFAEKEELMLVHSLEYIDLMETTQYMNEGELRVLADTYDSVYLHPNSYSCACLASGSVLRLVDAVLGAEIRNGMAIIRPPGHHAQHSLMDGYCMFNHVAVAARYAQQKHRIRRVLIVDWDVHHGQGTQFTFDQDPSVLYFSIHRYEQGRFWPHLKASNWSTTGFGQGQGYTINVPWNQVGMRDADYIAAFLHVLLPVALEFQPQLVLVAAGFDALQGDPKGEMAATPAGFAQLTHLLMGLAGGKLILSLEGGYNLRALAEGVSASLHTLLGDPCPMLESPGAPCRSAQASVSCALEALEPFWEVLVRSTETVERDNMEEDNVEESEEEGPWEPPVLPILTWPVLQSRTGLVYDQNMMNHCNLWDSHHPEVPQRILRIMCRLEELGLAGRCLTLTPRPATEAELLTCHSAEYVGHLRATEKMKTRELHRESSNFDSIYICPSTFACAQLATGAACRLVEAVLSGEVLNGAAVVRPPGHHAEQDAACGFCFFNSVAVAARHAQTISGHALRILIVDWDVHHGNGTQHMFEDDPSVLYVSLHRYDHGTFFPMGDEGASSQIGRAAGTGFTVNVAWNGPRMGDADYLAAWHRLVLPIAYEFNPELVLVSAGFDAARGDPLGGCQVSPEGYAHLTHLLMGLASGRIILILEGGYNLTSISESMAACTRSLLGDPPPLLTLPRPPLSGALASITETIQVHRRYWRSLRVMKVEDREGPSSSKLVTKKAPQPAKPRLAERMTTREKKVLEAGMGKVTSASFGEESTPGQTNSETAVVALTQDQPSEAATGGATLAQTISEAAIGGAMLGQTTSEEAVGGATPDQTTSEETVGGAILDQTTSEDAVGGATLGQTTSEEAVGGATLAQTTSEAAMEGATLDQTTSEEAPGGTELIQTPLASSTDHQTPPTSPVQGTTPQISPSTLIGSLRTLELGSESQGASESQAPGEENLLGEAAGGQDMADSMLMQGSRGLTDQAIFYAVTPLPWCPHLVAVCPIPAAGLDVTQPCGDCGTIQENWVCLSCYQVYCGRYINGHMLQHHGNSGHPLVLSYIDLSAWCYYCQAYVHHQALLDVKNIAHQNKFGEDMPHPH

Sequence of HDAC2 (Q92769 whole entry): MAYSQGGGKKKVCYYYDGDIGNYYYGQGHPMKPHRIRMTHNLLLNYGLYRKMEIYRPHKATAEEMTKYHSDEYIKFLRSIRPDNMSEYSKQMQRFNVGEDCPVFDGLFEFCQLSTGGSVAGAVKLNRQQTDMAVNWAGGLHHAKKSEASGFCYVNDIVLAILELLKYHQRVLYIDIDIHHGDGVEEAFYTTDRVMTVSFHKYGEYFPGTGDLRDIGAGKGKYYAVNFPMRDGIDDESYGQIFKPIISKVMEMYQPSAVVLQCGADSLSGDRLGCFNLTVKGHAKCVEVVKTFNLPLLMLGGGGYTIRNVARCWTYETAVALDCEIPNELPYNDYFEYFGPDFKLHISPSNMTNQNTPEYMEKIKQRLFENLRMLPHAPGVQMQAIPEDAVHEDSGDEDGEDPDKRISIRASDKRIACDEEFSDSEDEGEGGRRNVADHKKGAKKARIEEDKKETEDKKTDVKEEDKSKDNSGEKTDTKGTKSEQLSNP

Consider `CCCC(=O)[O-].[Na+]` [Sodium butyrate, reference compound], for which the IC50 was 300 µM on HDAC7 and 400 µM on HDAC2. Also, the “inhibition of HDAC6” value on HDAC6 is recorded as “no inhibition”.
